“And” between values parts separate entries of the source, which are not always exact repeats. Equal values may be shown once. Read-outs that look alike come from different tables or passages of the source.
What was measured:
AChE from electric eel = biological target: T1, AChE from electric eel (Electrophorus electricus, UniProt O42275); test: Ellman assay, AChE inhibition; assay type: biochemical; conditions: for inhibition at 100 µM: read-out: AChE %I at 100 μM; for IC50: inhibitor added 30 min before
T1 construct: AChE from electric eel; from tissue
T1 sequence (O42275 24-633): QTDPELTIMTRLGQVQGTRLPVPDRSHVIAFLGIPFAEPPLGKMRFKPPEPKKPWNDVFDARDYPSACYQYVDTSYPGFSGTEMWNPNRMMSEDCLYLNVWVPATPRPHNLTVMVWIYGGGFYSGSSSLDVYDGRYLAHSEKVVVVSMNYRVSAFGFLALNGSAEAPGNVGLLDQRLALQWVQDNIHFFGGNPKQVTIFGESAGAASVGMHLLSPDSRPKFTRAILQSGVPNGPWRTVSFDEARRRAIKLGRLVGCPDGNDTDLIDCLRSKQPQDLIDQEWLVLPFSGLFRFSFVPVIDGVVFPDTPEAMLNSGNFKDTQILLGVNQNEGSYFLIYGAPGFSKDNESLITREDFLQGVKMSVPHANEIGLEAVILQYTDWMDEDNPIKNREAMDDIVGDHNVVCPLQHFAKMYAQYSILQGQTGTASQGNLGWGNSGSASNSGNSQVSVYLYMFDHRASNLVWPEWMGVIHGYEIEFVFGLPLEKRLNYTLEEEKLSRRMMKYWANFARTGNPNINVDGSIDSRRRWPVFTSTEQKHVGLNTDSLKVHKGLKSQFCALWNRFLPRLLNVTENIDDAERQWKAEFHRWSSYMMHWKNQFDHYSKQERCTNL
Experimental: (§1) Inhibitory activities of the isosorbide-2-carbamates bearing a lipoate ester (7a–d), a ferulate ester (8a–d) ester or 5-unsubstituted compounds (6a–d) was measured using the standard Ellman spectrophotometric method using AChE from electric eel or BuChE purified from human plasma with acetylthiocholine or butyrylthiocholine as appropriate (Table 1). […] These values are in the potency range of clinically used cholinesterase inhibitors. […] In most cases, it was not possible to achieve a maximal inhibition of AChE because the solubility threshold was lower than the concentration required for maximal inhibition. In previous studies, we noticed that phenyl carbamates of isosorbide are relatively weak inhibitors of BuChE compared with the benzyl and alkyl carbamates, but that AChE is relatively tolerant of isosorbide phenyl carbamates. We published a paper showing that isosorbide-2,5-diaryl esters are moderately potent substrate-inhibitors of AChE [25]. […] The effect of (appropriate) 5-ester substitution in the series of isosorbide compounds already published is to increase potency by promoting affinity in the pre-carbamylation state, reducing the pseudo Michaelis constant for the carbamate substrate (referred to as Kc in carbamylation literature). When the intrinsic affinity of the substrate carbamate is higher, there is a relatively greater proportion of the unimolecular E. carbamate complex. In the present case, the anti-oxidant ester functionality directly contributes to potency by increasing substrate affinity. […] Indeed, ester hydrolysis at the isosorbide C-5, which is slow, would produce the ferulic acid or lipoic acid byproduct.
(§2) Cholinesterase activity was measured using the Ellman spectrophotometric method. HuBuChE activity was measured in replicate samples using a 96-well plate reader. The total volume of test solution in each well was 250 μL. This consisted of 25 μL of plasma solution, 150 μL of phosphate buffer pH 8.0, 25 μL of DTNB solution (0.5 mM), and 25 μL of acetonitrile:distilled water (1:1). The 96-well plate was incubated for 30 min before 25 μL of butyrylthiocholine iodide (BTCI) solution (0.5 mM) was added, and the reaction was measured at 405 nm over 5 min using an Anthos bt2 plate reader. For the determination of AChE activity, 25 μL of electric eel AChE solution and 25 μL of acetylthiocholine iodide (ATCI) solution were used instead of the plasma solution and BTCI solution. For determination of enzyme inhibition, 25 μL of an inhibitor solution was added to the test solution instead of the acetonitrile:water (1:1) solution. Inhibitors were added 30 min before determination of remaining enzyme activity. IC50 values were calculated using GraphPad Prism 4.02 software (GraphPad Software Inc., La Jolla, CA, USA).

[1] = biological target: T2, BuChE purified from human plasma (Homo sapiens, UniProt P06276); test: Ellman assay, BuChE inhibition; assay type: biochemical; conditions: for IC50: n = 3; for Selectivity: IC50 AChE/IC50 BuChE, 100 µM used for AChE where % inhibition at 100 µM was <50%
T2 construct: BuChE purified from human plasma; from tissue; host or cells: human plasma
T2 sequence (P06276 29-602): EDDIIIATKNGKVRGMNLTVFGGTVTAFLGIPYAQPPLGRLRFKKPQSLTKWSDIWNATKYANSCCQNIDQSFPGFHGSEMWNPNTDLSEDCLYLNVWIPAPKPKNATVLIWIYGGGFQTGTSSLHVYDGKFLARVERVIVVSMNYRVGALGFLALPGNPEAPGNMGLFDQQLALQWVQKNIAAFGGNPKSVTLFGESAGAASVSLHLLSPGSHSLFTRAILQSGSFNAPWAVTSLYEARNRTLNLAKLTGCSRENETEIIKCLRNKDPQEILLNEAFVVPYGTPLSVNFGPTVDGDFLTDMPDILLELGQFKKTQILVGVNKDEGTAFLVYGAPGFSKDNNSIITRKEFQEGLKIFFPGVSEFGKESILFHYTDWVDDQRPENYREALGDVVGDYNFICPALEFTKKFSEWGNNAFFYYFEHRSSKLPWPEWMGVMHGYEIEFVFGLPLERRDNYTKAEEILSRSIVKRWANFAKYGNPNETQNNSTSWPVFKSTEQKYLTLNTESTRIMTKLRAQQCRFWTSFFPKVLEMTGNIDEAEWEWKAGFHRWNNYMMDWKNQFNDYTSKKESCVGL
Experimental: as §1, §2

[2] = test system: HT-22 murine hippocampal cell line; test: cells; assay type: cell-based; conditions: glutamate 5 mM
Experimental: (§3) The neuroprotective properties of the compounds were assessed using the HT-22 murine hippocampal cell line. This is an immortalized cell line which has become widely used in recent years to study oxidative stress induced neuronal cell death. The cell line lacks ionotropic glutamate receptors but is sensitive to glutamate cytotoxicity via non-receptor mediated pathway(s) that are to a significant extent propagated by reactive oxygen species. The cell line appeared to be a good cellular model for measuring an anti-oxidant mediated neuroprotective in vitro effect of the compounds [26, 27, 28].
(§4) Test compounds in DMSO solution (0.1%) were added to HT-22 cell culture for (24 h), using four repeats in three independent experiments. […] Lipoic acid and ferulic acid were also non-toxic in the same concentration range. Next, the neuronal cell culture was treated with glutamate (5 mM) which caused about 90% cell death as reflected in the MTT assay. Quercetin served as positive control and caused rescue of cell death to around 80% cell viability at 25 µM. Cells were co-treated with test compounds 7a–d and 8a–d at 1, 5, 10 and 25 µM in four repeats and three independent experiments. Lipoic and ferulic acid were tested in parallel experiments in the same concentration range. Lipoic acid was active in the range 10–25 µM but ferulic acid was not active (data not shown). […] The reasons for this unexpected variation in efficacy is not clear but may be due to (intra)cellular access.
This test was performed as reported before. Briefly, HT-22 cells were seeded in 96-well plates at a density of 5 × 10^3 per well and cultured for 24 h. Subsequently, cells were incubated for another 24 h either with medium or test compounds with potential cytoprotective activity either in the absence (to test for toxic effects) or the presence (to test for the protective potential against glutamate induced oxidative stress) of 5 mM glutamate. MTT solution (4 mg/mL in PBS) was diluted 1:10 with medium and the mixture was added to the wells after removal of the previous medium. The plates were then incubated for another 3 h. Then, the supernatant was removed and 100 µL of lysis buffer (10% SDS, pH 4.1) were added to the wells. Absorbance at 560 nm was determined on the next day using a multiwell plate photometer (Spectra Fluor Plus, Tecan, Crailsheim, Germany). The results of these cell viability assays were expressed as percentages relative to untreated control cells. All compounds were dissolved in DMSO and diluted with fresh medium, with the DMSO concentration always below 0.1% (v/v).
Data of all MTT tests were expressed as means ± SD of at least three independent experiments (in quadruplicates). Data were subjected to one-way ANOVA followed by Dunnett’s multiple comparison post-test using GraphPad Prism 5 Software. (Levels of significance ** p < 0.01; *** p < 0.001).

[3] = test system: HT-22 murine hippocampal cell line; assay type: cell-based; conditions: 24 h, no glutamate; for toxicity / reduction in cell viability, compound alone: 1–25 µM
Experimental: as §3, §4
This test was performed as reported before. Briefly, HT-22 cells were seeded in 96-well plates at a density of 5 × 10^3 per well and cultured for 24 h. […] Absorbance at 560 nm was determined on the next day using a multiwell plate photometer (Spectra Fluor Plus, Tecan, Crailsheim, Germany). The results of these cell viability assays were expressed as percentages relative to untreated control cells. […]

human BuChE = human BuChE (Homo sapiens, UniProt P06276); test: Inhibitor kinetics, time dependence of BuChE carbamylation; assay type: biochemical; conditions: r^2 > 0.99
Chain of human BuChE (P06276 29-602): as above
Experimental: Solutions of human BuChE were treated with 7a in the range of 1–50 µM. At successive time intervals, aliquots were removed and the carbamylation reaction stopped by dilution. Residual enzyme activity at each time point and each inhibitor concentration level was estimated by adding the sample to a solution containing butyrylthiocholine substrate.
In order to monitor enzyme carbamylation over time, a 96-well plate was used, with all assay mixtures being made up to a final concentration of 250 μL for monitoring of absorbance at 412 nm. At time 0, 150 μL of inhibitor, at various concentrations, was added to an equal volume of enzyme. Thereafter, at successive time points, 50 μL aliquots were removed from these wells and added to wells containing 200 μL DTNB and BTCI in phosphate buffer pH 8.0. Hydrolysis of substrate was monitored by examining the changes in absorbance in each well at 412 nm over the following 30 s. Negative controls were run alongside the test solutions to take account of non-enzymatic hydrolysis, while positive controls gauged the rate of the uninhibited reaction. At least two replicate wells were run for each concentration of inhibitor. Plots of percentage inhibition over time were prepared using GraphPad Prism 4.03. A first order inhibition constant, kobs was obtained for each concentration of inhibitor by non-linear regression using an exponential decay function.

[4] = Oxygen radical absorbance capacity (ORAC) assay; assay type: physicochemical; conditions: for ORAC antioxidant capacity: TE = 1 equals trolox
Experimental: The antioxidant capacity of 7d and 8a was assessed directly using the oxygen radical absorbance capacity (ORAC) assay, in which the physicochemical ability of the test compounds to scavenge radicals and quench fluorescein […] is quantified and related to so-called trolox equivalents (TE = 1 represents the antioxidant equivalence to trolox, a water-soluble Vitamin E derivative). Compound 7d was 0.163 ± 0.146, 8a, 0.635 ± 0.020, thus showing a very weak ORAC for the lipoate and a weak, but significant, effect for the ferulic acid derivative. The lack of activity of the lipoate in the non-cellular ORAC assay is not surprising as its anti-oxidant effects are mainly related to cellular or mitochondria related processes.
Compounds were assessed for antioxidant capacity using the standard ORAC assay performed as described previously.

BuChE = conditions: cited from earlier work
[5] = inhibitor added 30 min before, read-out: BChE IC50
[6] = read-out: BChE pIC50 ± SEM (converted)

| SMILES | inhibition at 100 µM (AChE from electric eel; 100 μM, n = 3) | IC50 [1, 5] | IC50 [1, 6] | also measured |
| --- | --- | --- | --- | --- |
| CCNC(=O)O[C@H]1CO[C@H]2[C@@H]1OC[C@H]2O [Compound 6d, Isosorbide-2-ethylcarbamate] | 22% | 46.9 µM | 46.8 µM |  |
| O=C(Nc1ccccc1)O[C@H]1CO[C@H]2[C@@H]1OC[C@H]2O [Compound 6b, Isosorbide-2-phenylcarbamate] | 25.3% | > 100 µM |  |  |
| O=C(O)CCCCC1CCSS1 (centres unmarked) [Lipoic acid, lipoic acid, reference compound] |  |  |  | neuroprotective effect ([2]; compound 5 µM): not effective; toxicity / reduction in cell viability, compound alone [3]: non-toxic |
| O=C(CCCCC1CCSS1)O[C@@H]1CO[C@H]2[C@@H]1OC[C@@H]2OC(=O)NCc1ccccc1 (some centres unmarked) [Compound 7a, Isosorbide-2-benzylcarbamate-5-lipoic acid ester] | 30.8% | 0.15 µM |  | concentration range with neuroprotective effect ([2]; tested at 1, 5, 10 and 25 µM): 5 to 25 µM and > 5 µM; pseudo first order rate constant of BuChE inhibition (human BuChE; inhibitor 10 µM): 0.068 min⁻¹; pseudo first order rate constant of BuChE inhibition (human BuChE; inhibitor 50 µM): 0.198 min⁻¹; Selectivity [1]: >667 |
| COc1cc(/C=C/C(=O)O[C@@H]2CO[C@H]3[C@@H]2OC[C@@H]3OC(=O)NCc2ccccc2)ccc1O [Compound 8a, Isosorbide-2-benzylcarbanate-5-ferulate] | 25.2% | 1.82 µM | 1.62 µM | ORAC antioxidant capacity [4]: 0.635 ± 0.020 Trolox Equivalent; Selectivity [1]: >55 |
| O=c1c(O)c(-c2ccc(O)c(O)c2)oc2cc(O)cc(O)c12 [Quercetin, quercetin, reference compound] |  |  |  | viability at 25 µM ([2]; Mus musculus, HT-22, compound 25 µM, read-out: cell viability after rescue from glutamate): ~80% |
| CCNC(=O)O[C@H]1CO[C@H]2[C@@H]1OC[C@H]2OC(=O)/C=C/c1ccc(O)c(OC)c1 [Compound 8d, Isosorbide-2-ethylcarbanate-5-ferulate] |  | 95 µM | 95.5 µM | reduction in cell viability, compound alone ([3]; 25 µM): significant |
| CCCCNC(=O)O[C@H]1CO[C@H]2[C@@H]1OC[C@H]2O [Compound 6c, Isosorbide-2-butylcarbamate] |  | 28 µM | 28.2 µM | inhibition at 100 µM (AChE from electric eel): 30% |
| O=C(NCc1ccccc1)OC1COC2C(OC(=O)c3ccccc3O)COC12 (centres unmarked) [Isosorbide-2-benzyl carbamate-5-salicylate] |  |  |  | IC50 (BuChE; read-out: IC50 for BuChE): < 0.00015 µM |
| COc1cc(/C=C/C(=O)O[C@@H]2CO[C@H]3[C@@H]2OC[C@@H]3OC(=O)Nc2ccccc2)ccc1O [Compound 8b, Isosorbide-2-phenylcarbanate-5-ferulate] |  | 29.2 µM | 26.3 µM | IC50 (AChE from electric eel; n = 3): 27.1 ± 11.3 µM; Selectivity [1]: 0.92 |
| O=C(NCc1ccccc1)O[C@H]1CO[C@H]2[C@@H]1OC[C@H]2OC(=O)c1ccccc1 [Compound 1] |  |  |  | IC50 (BuChE; read-out: IC50 BuChE): 0.0043 µM |
| O=C(CCCCC1CCSS1)O[C@@H]1CO[C@H]2[C@@H]1OC[C@@H]2OC(=O)Nc1ccccc1 (some centres unmarked) [Compound 7b, Isosorbide-2-phenylcarbamate-5-lipoic acid ester] | 18.8% | 13.3 µM | 13.2 µM | neuroprotective effect ([2]; 1–25 µM): neuroprotective effect could not be observed; Selectivity [1]: >7.5 |
| CCCCNC(=O)O[C@H]1CO[C@H]2[C@@H]1OC[C@H]2OC(=O)CCCCC1CCSS1 (some centres unmarked) [Compound 7c, Isosorbide-2-butylcarbamate-5-lipoic acid ester] | 68.7% | 0.17 µM | 0.209 µM | neuroprotective effect ([2]; 1–25 µM): showed some effects |
| CCCCNC(=O)O[C@H]1CO[C@H]2[C@@H]1OC[C@H]2OC(=O)/C=C/c1ccc(O)c(OC)c1 [Compound 8c, Isosorbide-2-butylcarbanate-5-ferulate] |  | 0.43 µM | 0.389 µM |  |
| CCNC(=O)O[C@H]1CO[C@H]2[C@@H]1OC[C@H]2OC(=O)CCCCC1CCSS1 (some centres unmarked) [Compound 7d, Isosorbide-2-ethylcarbamate-5-lipoic acid ester] | 84.1% | 5.71 µM | 5.75 µM | neuroprotective effect ([2]; 1–25 µM): showed some effects; ORAC antioxidant effect [4]: not active; ORAC antioxidant capacity [4]: 0.163 ± 0.146 Trolox Equivalent |
| O=C(NCc1ccccc1)O[C@H]1CO[C@H]2[C@@H]1OC[C@H]2O [Compound 6a, Isosorbide-2-benzylcarbamate] |  | 25.8 µM |  | IC50 (AChE from electric eel; n = 3): 37.5 ± 7.4 µM; Selectivity [1]: 1.45 |
| COc1cc(/C=C/C(=O)O)ccc1O [Ferulic acid, ferulic acid, reference compound] |  |  |  | neuroprotective effect ([2]; 1–25 µM): not active; toxicity / reduction in cell viability, compound alone [3]: non-toxic |

From publication PMC6273432, “Novel Selective Butyrylcholinesterase Inhibitors Incorporating Antioxidant Functionalities as Potential Bimodal Therapeutics for Alzheimer’s Disease” (Molecules, 2016)
